Experimental data as given in ChEMBL document CHEMBL4265961, “Efficient optimization of pyrazolo[3,4-d]pyrimidines derivatives as c-Src kinase inhibitors in neuroblastoma treatment” (Bioorg Med Chem Lett, 2018).
Converted amounts (≈) assume the structure as drawn. The source made the active and inactive calls. The calls are words filed in the database; no cut-off is given here.

What was measured:
[1] = Apparent permeability of the compound after 5 hrs by PAMPA; format: ADME
SH-SY5Y [2] = assay: Antiproliferative activity against human SH-SY5Y cells at 1 to 10 uM after 72 hrs by nucleo cell counting method; format: functional, cell-based
SH-SY5Y [3] = assay: Cell cycle arrest in human SH-SY5Y cells assessed as accumulation at G1 phase after 48 hrs by propidium iodide staining based flow cytometry; format: functional
[4] = Aqueous solubility in water at 1 mg after 24 hrs at 20 degC by UV/LC-MS analysis; format: physicochemical
[5] = Metabolic stability in human liver microsomes after 60 mins in presence of NADPH by UV/LC-MS analysis; format: ADME, microsome; settings: read-out: Stability
SH-SY5Y [6] = assay: Antiproliferative activity against human SH-SY5Y cells after 72 hrs by nucleo cell counting method

Papp at 5 h [1] [×10⁻⁶ cm/s]	remaining at 1 h [5] [%]	IC50 (SH-SY5Y [6]) [µM]	Compound	Activity (SH-SY5Y [2])	Activity (SH-SY5Y [3])	solubility at 24 h [4] [µg/mL]
2.7	97.2	3.1	OCCNc1nc(Nc2cc(O)ccc2Cl)c2cnn(CC(Cl)c3ccccc3)c2n1 (stereo not drawn)	Active	Dose-dependent effect	0.042 (≈ 0.0914 µM)
9.74	96.9	6.6	Oc1ccc(Cl)c(Nc2nc(SCCN3CCOCC3)nc3c2cnn3CC(Cl)c2ccccc2)c1 (stereo not drawn)	Active		
6.81	99		CC(Cn1ncc2c(Nc3cccc(O)c3)nc(SCCN3CCOCC3)nc21)c1ccccc1 (stereo not drawn)			0.1 (≈ 0.204 µM)
3.23	96.4		CSc1nc(Nc2cc(O)ccc2Cl)c2cnn(CC(Cl)c3ccccc3)c2n1 (stereo not drawn)			
4.44	98.7		Oc1cccc(Nc2nc(SCCN3CCOCC3)nc3c2cnn3CC(Cl)c2ccccc2)c1 (stereo not drawn)			0.197 (≈ 0.385 µM)
	93.5		CC(C)Sc1nc(Nc2cccc(O)c2)c2cnn(CC(Cl)c3ccccc3)c2n1 (stereo not drawn)			
8.33	92.7	6.7	CSc1nc(Nc2cc(O)ccc2Cl)c2cnn(CC(C)c3ccccc3)c2n1 (stereo not drawn)	Active		
2.2	98.4		CC(Cn1ncc2c(Nc3cc(O)ccc3Cl)nc(NCCN)nc21)c1ccccc1 (stereo not drawn)			0.1 (≈ 0.228 µM)

Compound	Papp at 5 h [1] [×10⁻⁶ cm/s]	remaining at 1 h [5] [%]	IC50 (SH-SY5Y [6]) [µM]	Activity (SH-SY5Y [2])	Activity (SH-SY5Y [3])	solubility at 24 h [4] [µg/mL]
Oc1ccc(Cl)c(Nc2ncnc3c2cnn3CC(Cl)c2ccccc2)c1 (stereo not drawn)	4.39	86.3				0.053 (≈ 0.132 µM)
CC(Cn1ncc2c(Nc3cc(O)ccc3Cl)nc(SCCN3CCOCC3)nc21)c1ccccc1 (stereo not drawn)	11.2	97.9				0.031 (≈ 0.059 µM)
CC(Cn1ncc2c(Nc3cc(O)ccc3Cl)nc(NCCO)nc21)c1ccccc1 (stereo not drawn)	0.1	97.9				0.103 (≈ 0.235 µM)
CC(Cn1ncc2c(Nc3cccc(O)c3)nc(NCCO)nc21)c1ccccc1 (stereo not drawn)	0.2	99.4				134 (≈ 332 µM)
